Experimental findings from patent publication US3966701A, “Fibrinogen peptide derivatives” (The Dow Chemical Company, priority 1973, dated 1976) are described below.

Assay [1] concerns thrombin. The assay can be described thus: in vitro thrombin time (TT): exogenous thrombin added to oxalated plasma, clotting time measured. Type of assay: biochemical. To be noted: oxalated dog plasma, thrombin 1 unit/ml, control 15 sec.
Procedure: Their anticoagulant activity was determined by measuring thrombin time (TT) utilizing an in vitro test wherein exogenous thrombin is added to oxalated plasma and clotting time is measured in the presence of the test compound.
^a Clotting mixture: 0.2 ml. oxalated dog plasma, 0.1 ml. barbital
buffer containing peptide and 0.1 ml. thrombin (1 unit/ml.)
Assay [2] concerns thrombin. The assay can be described thus: in vitro plasma recalcification time (PRT): calcium ions added to oxalated plasma, clotting time measured. Format: biochemical, dog.
Procedure: The plasma recalcification time (PRT) was also used in an in vitro test for measuring thrombin inhibition wherein exogenous calcium ions were added to oxalated plasma (the system makes its thrombin in situ), and measuring clotting time in the presence of the compounds.
0.2 ml. oxalated dog plasma
0.1 ml. Barbital buffer saline containing test compound
0.1 ml. oxalated dog plasma
0.2 ml. Barbital buffer saline containing test compound
The mark [3] stands for this setting: 0.25 mg/ml, clotting mixture (a), 0.2 ml oxalated dog plasma, control 66 sec.
[4] abbreviates: 0.5 mg/ml, clotting mixture (a), 0.2 ml oxalated dog plasma, control 66 sec.
Setting [5] is: 1.0 mg/ml, clotting mixture (a), 0.2 ml oxalated dog plasma, control 66 sec.
[6] abbreviates: 1.5 mg/ml, clotting mixture (a), 0.2 ml oxalated dog plasma, control 66 sec.

Where a SMILES comes first, the peptide text is derived from it. The star is where a group is joined. Boc = CC(C)(C)OC(=O)*; OBn = c1ccc(CO*)cc1

On to `CC(C)(C)OC(=O)N1CCC[C@H]1C(=O)N[C@@H](CCCNC(=N)N)C(=O)OCc1ccccc1.CO.Cc1ccc(S(=O)(=O)O)cc1` [Example 1, N-t-Butyloxycarbonyl-L-prolyl-L-arginine Benzyl Ester p-Toluenesulfonate Methanolate] (Boc-Pro-Arg-OBn), for which the “Thrombin Times (sec) at Peptide Concentrations (mg/ml)” value (“Thrombin Times (sec)” for short) worked out at 40 s in assay [1] (0.125 mg/ml peptide); 44 s in assay [1] (0.25 mg/ml peptide); 73 s in assay [1] (0.5 mg/ml peptide); 91 s in assay [1] (1.0 mg/ml peptide); 159 s in assay [1] (2.0 mg/ml peptide). In addition, the “PRT (average)” value in assay [2] (setting [3]) is 128 s; in assay [2] (setting [4]) it was 160 s; in assay [2] (setting [5]), 207 s; in assay [2] (setting [6]), 229 s; in assay [2] (2 mg/ml, clotting mixture (a), 0.2 ml oxalated dog plasma, control 66 sec), 250 s.
Take `CC(C)(C)OC(=O)NCC(=O)N1CCC[C@H]1C(=O)N[C@@H](CCCNC(=N)N)C(=O)OCc1ccccc1.Cc1ccc(S(=O)(=O)O)cc1` [Example 3, N-t-Butyloxycarbonylglycyl-L-prolyl-L-arginine Benzyl Ester p-Toluenesulfonate] (Boc-Gly-Pro-Arg-OBn): the “Thrombin Times (sec)” value in assay [1] (0.125 mg/ml peptide) stood at 23 s; in assay [1] (0.25 mg/ml peptide), 29 s; in assay [1] (0.5 mg/ml peptide), 42 s; in assay [1] (1.0 mg/ml peptide), 56 s; in assay [1] (2.0 mg/ml peptide), 75 s. Also, the “PRT (average)” value in assay [2] (setting [3]) came to 88 s; in assay [2] (setting [4]), 110 s; in assay [2] (setting [5]), 146 s; in assay [2] (setting [6]), 202 s.
“Glycyl-L-Prolyl-L-Arginine Benzyl Ester p-Toluenesulfonate Trifluoroacetate [Example 4]”: the “Thrombin Times (sec)” value in assay [1] (0.125 mg/ml peptide) is 19 s; in assay [1] (0.25 mg/ml peptide), 26 s; in assay [1] (0.5 mg/ml peptide) it was 44 s; in assay [1] (1.0 mg/ml peptide), 68 s; in assay [1] (2.0 mg/ml peptide) it was 135 s. Also, the “PRT (average)” value was 77 s in assay [2] (0.25 mg/ml, clotting mixture (a), 0.2 ml oxalated dog plasma, control 55 sec); 100 s in assay [2] (0.5 mg/ml, clotting mixture (a), 0.2 ml oxalated dog plasma, control 55 sec); 198 s in assay [2] (1.0 mg/ml, clotting mixture (a), 0.2 ml oxalated dog plasma, control 55 sec); 246 s in assay [2] (1.5 mg/ml, clotting mixture (a), 0.2 ml oxalated dog plasma, control 55 sec); 296 s in assay [2] (2 mg/ml, clotting mixture (a), 0.2 ml oxalated dog plasma, control 55 sec).
Regarding “L-Prolyl-L-arginine Benzyl Ester p-Toluenesulfonate Trifluoroacetate [Example 2]”, the “Thrombin Times (sec)” value in assay [1] (0.125 mg/ml peptide) amounted to 19 s; in assay [1] (0.25 mg/ml peptide), 23 s; in assay [1] (0.5 mg/ml peptide), 31 s; in assay [1] (1.0 mg/ml peptide) it was 46 s; in assay [1] (2.0 mg/ml peptide), 69 s. Further, the “PRT (average)” value in assay [2] (setting [3]) was 89 s; in assay [2] (setting [4]) it was 102 s; in assay [2] (setting [5]), 134 s; in assay [2] (setting [6]), 209 s.
For the compound “N-Benzyloxycarbonyl-L-prolyl-L-arginine Benzyl Ester p-Toluenesulfonate Methanolate [Example 5]”, the “PRT (average)” value in assay [2] (0.25 mg/ml, clotting mixture (b), 0.1 ml oxalated dog plasma, control 115 sec) was 240 s; in assay [2] (0.5 mg/ml, clotting mixture (b), 0.1 ml oxalated dog plasma, control 115 sec) it was 270 s; in assay [2] (1.0 mg/ml, clotting mixture (b), 0.1 ml oxalated dog plasma, control 115 sec) it was 345 s; in assay [2] (2 mg/ml, clotting mixture (b), 0.1 ml oxalated dog plasma, control 115 sec), 435 s.
